In US20120029187A1, “HALOALKYLSULFONANILIDE DERIVATIVE” (Nissan Chemical Industries, Ltd., priority 2009, published 2012):

Experiments:
Type in all cases: in vivo
redroot pigweed [1] = experiment: Test Example 3: herbicidal effects in soil treatment; conditions: dose 3.2 g/a
Procedure, shortened: (§1)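 Seeds were sown in sterilized diluvial soil and covered with about 1.5 cm of soil. Compounds, formulated as emulsifiable concentrates and diluted with water, were sprayed evenly over the soil surface at set doses in g/a. Herbicidal effect was scored on a rating scale three weeks later.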

wild oat [2] = experiment: as above; conditions: dose 3.2 g/a
Procedure, shortened: as §1

giant foxtail [3] = experiment: as above; conditions: dose 3.2 g/a
Procedure, shortened: as §1

common chickweed [4] = experiment: as above; conditions: dose 3.2 g/a
Procedure, shortened: as §1

barnyardgrass [5] = experiment: as above; conditions: dose 3.2 g/a
Procedure, shortened: as §1

Italian ryegrass [6] = experiment: as above; conditions: dose 3.2 g/a
Procedure, shortened: as §1

water foxtail [7] = experiment: as above; conditions: dose 3.2 g/a
Procedure, shortened: as §1

common ragweed [8] = experiment: as above; conditions: dose 3.2 g/a
Procedure, shortened: as §1

large crabgrass [9] = experiment: as above; conditions: dose 3.2 g/a
Procedure, shortened: as §1

common lambsquater [10] = experiment: as above; conditions: dose 3.2 g/a
Procedure, shortened: as §1

velvetleaf [11] = experiment: as above; conditions: dose 3.2 g/a
Procedure, shortened: as §1

bulrush [12] = experiment: Test Example 1: herbicidal effects in preemergence treatment under submerged conditions; conditions: dose 2.52 g/a
Procedure, shortened: (§2)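 Score 0–5 by mortality (5: ≥90%; 0: <5%), read 3 weeks post-application. Paddy-type cups: alluvial soil under 4 cm water, weeds seeded plus transplanted 2.5-leaf rice; diluted EC dosed onto water surface same day as sowing, g/a basis; greenhouse 25 to 30° C.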

barnyardgrass [13] = experiment: as above; conditions: dose 2.52 g/a
Procedure, shortened: as §2

ducksalad [14] = experiment: as above; conditions: dose 2.52 g/a
Procedure, shortened: as §2

redroot pigweed [15] = experiment: Test Example 4: herbicidal effect in foliage treatment; conditions: dose 3.2 g/a, three weeks after application
Procedure, shortened: (§3)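 Seeds sown in sterilized diluvial soil under ~1.5 cm soil cover and grown 14 days in a greenhouse at 25 to 30° C. Emulsifiable concentrates diluted with water were then sprayed uniformly on foliage at predetermined doses (g/a). Herbicidal effect was scored three weeks after application on a graded evaluation scale.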

wild oat [16] = experiment: as above; conditions: dose 3.2 g/a
Procedure, shortened: as §3

giant foxtail [17] = experiment: as above; conditions: dose 3.2 g/a
Procedure, shortened: as §3

common chickweed [18] = experiment: as above; conditions: dose 3.2 g/a, three weeks after application
Procedure, shortened: as §3

posumbu knotweed = experiment: as above; conditions: dose 3.2 g/a
Procedure, shortened: as §3

barnyardgrass [19] = experiment: as above; conditions: dose 3.2 g/a
Procedure, shortened: as §3

Italian ryegrass [20] = experiment: as above; conditions: dose 3.2 g/a
Procedure, shortened: as §3

water foxtail [21] = experiment: as above; conditions: dose 3.2 g/a
Procedure, shortened: as §3

common ragweed [22] = experiment: as above; conditions: dose 3.2 g/a
Procedure, shortened: as §3

large crabgrass [23] = experiment: as above; conditions: dose 3.2 g/a
Procedure, shortened: as §3

common lambsquater [24] = experiment: as above; conditions: dose 3.2 g/a
Procedure, shortened: as §3

beadstraw = experiment: as above; conditions: dose 3.2 g/a
Procedure, shortened: as §3

velvetleaf [25] = experiment: as above; conditions: dose 3.2 g/a
Procedure, shortened: as §3

transplanted rice = experiment: Test Example 1: preemergence treatment under submerged conditions, effect on crop; conditions: dose 2.52 g/a
Procedure, shortened: as §2

bulrush [26] = experiment: Test Example 2: herbicidal effects during the vegetation period under submerged conditions; conditions: treatment during the vegetation period under submerged conditions; dose 2.52 g/a
Procedure, shortened: (§4)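 Barnyardgrass, bulrush and ducksalad were co-sown in alluvial soil flooded to 4 cm and grown in a greenhouse at 25 to 30° C. At the 1- or 2-leaf stage, water-diluted emulsifiable concentrates went onto the water surface at set doses (g/a). Herbicidal effect was scored three weeks later on a graded scale.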

barnyardgrass [27] = experiment: as above; conditions: treatment during the vegetation period under submerged conditions; dose 2.52 g/a
Procedure, shortened: as §4

ducksalad [28] = experiment: as above; conditions: treatment during the vegetation period under submerged conditions; dose 2.52 g/a
Procedure, shortened: as §4

[29] = three weeks after the application

CC(C)COC(=O)N(c1ccccc1CN1COC(c2ccccc2)CC1=O)S(=O)(=O)C(F)(F)F (centres unmarked) [II-13]
K: redroot pigweed, herbicidal effect (evaluation scale 0-5) (redroot pigweed [1]): 0 (mortality of less than 5% (almost ineffective))
F: wild oat, herbicidal effect (evaluation scale 0-5) (wild oat [2]): 0 (mortality of less than 5% (almost ineffective))
E: giant foxtail, herbicidal effect (evaluation scale 0-5) (giant foxtail [3]): 4 (mortality of at least 70% and less than 90%)
N: common chickweed, herbicidal effect (evaluation scale 0-5) (common chickweed [4]): 0 (mortality of less than 5% (almost ineffective))
A: barnyardgrass, herbicidal effect (evaluation scale 0-5) (barnyardgrass [5]): 3 (mortality of at least 40% and less than 70%)
H: Italian ryegrass, herbicidal effect (evaluation scale 0-5) (Italian ryegrass [6]): 0 (mortality of less than 5% (almost ineffective))
G: water foxtail, herbicidal effect (evaluation scale 0-5) (water foxtail [7]): 0 (mortality of less than 5% (almost ineffective))
J: common ragweed, herbicidal effect (evaluation scale 0-5) (common ragweed [8]): 0 (mortality of less than 5% (almost ineffective))
D: large crabgrass, herbicidal effect (evaluation scale 0-5) (large crabgrass [9]): 2 (mortality of at least 20% and less than 40%)
L: common lambsquater, herbicidal effect (evaluation scale 0-5) (common lambsquater [10]): 0 (mortality of less than 5% (almost ineffective))
I: velvetleaf, herbicidal effect (evaluation scale 0-5) (velvetleaf [11]): 0 (mortality of less than 5% (almost ineffective))
B: bulrush, herbicidal effect (evaluation scale 0-5) (bulrush [12]): 5 (mortality of 90% or above (nearly complete death))
A: barnyardgrass, herbicidal effect (evaluation scale 0-5) (barnyardgrass [13]): 5 (mortality of 90% or above (nearly complete death))
C: ducksalad, herbicidal effect (evaluation scale 0-5) (ducksalad [14]): 5 (mortality of 90% or above (nearly complete death))
K: redroot pigweed, herbicidal effect (redroot pigweed [15]): 0 (mortality of less than 5% (almost ineffective))
F: wild oat, herbicidal effect (wild oat [16]; three weeks after application): 0 (mortality of less than 5% (almost ineffective))
E: giant foxtail, herbicidal effect (giant foxtail [17]; three weeks after application): 0 (mortality of less than 5% (almost ineffective))
N: common chickweed, herbicidal effect (common chickweed [18]): 3 (mortality of at least 40% and less than 70%)
M: posumbu knotweed, herbicidal effect (posumbu knotweed; three weeks after application): 1 (mortality of at least 5% and less than 20%)
A: barnyardgrass, herbicidal effect (barnyardgrass [19]; three weeks after application): 2 (mortality of at least 20% and less than 40%)
H: Italian ryegrass, herbicidal effect (Italian ryegrass [20]; three weeks after application): 0 (mortality of less than 5% (almost ineffective))
G: water foxtail, herbicidal effect (water foxtail [21]; three weeks after application): 0 (mortality of less than 5% (almost ineffective))
J: common ragweed, herbicidal effect (common ragweed [22]; three weeks after application): 4 (mortality of at least 70% and less than 90%)
D: large crabgrass, herbicidal effect (large crabgrass [23]; three weeks after application): 2 (mortality of at least 20% and less than 40%)
L: common lambsquater, herbicidal effect (common lambsquater [24]; three weeks after application): 0 (mortality of less than 5% (almost ineffective))
O: beadstraw, herbicidal effect (beadstraw; three weeks after application): 4 (mortality of at least 70% and less than 90%)
I: velvetleaf, herbicidal effect (velvetleaf [25]; three weeks after application): 0 (mortality of less than 5% (almost ineffective))
a: transplanted rice, effect on crop (evaluation scale 0-5) (transplanted rice): 0 (mortality of less than 5% (almost ineffective))
B: bulrush, herbicidal effect (evaluation scale 0-5) (bulrush [26]): 5 (mortality of 90% or above (nearly complete death))
A: barnyardgrass, herbicidal effect (evaluation scale 0-5) (barnyardgrass [27]): 5 (mortality of 90% or above (nearly complete death))
C: ducksalad, herbicidal effect (evaluation scale 0-5) (ducksalad [28]): 5 (mortality of 90% or above (nearly complete death))

O=C1CCCON1Cc1ccccc1NS(=O)(=O)C(F)(F)F [III-12]
herbicidal effect, K: redroot pigweed (redroot pigweed [1]): 0 (mortality of less than 5% (almost ineffective))
herbicidal effect, F: wild oat (wild oat [2]): 2 (mortality of at least 20% and less than 40%)
herbicidal effect, E: giant foxtail (giant foxtail [3]): 5 (mortality of 90% or above (nearly complete death))
herbicidal effect, A: barnyardgrass (barnyardgrass [5]): 5 (mortality of 90% or above (nearly complete death))
herbicidal effect, H: Italian ryegrass (Italian ryegrass [6]): 3 (mortality of at least 40% and less than 70%)
herbicidal effect, G: water foxtail (water foxtail [7]): 5 (mortality of 90% or above (nearly complete death))
herbicidal effect, J: common ragweed (common ragweed [8]): 5 (mortality of 90% or above (nearly complete death))
herbicidal effect, D: large crabgrass (large crabgrass [9]): 5 (mortality of 90% or above (nearly complete death))
herbicidal effect, L: common lambsquater (common lambsquater [10]): 0 (mortality of less than 5% (almost ineffective))
herbicidal effect, I: velvetleaf (velvetleaf [11]): 5 (mortality of 90% or above (nearly complete death))
B: bulrush, herbicidal effect (evaluation scale 0-5) (bulrush [12]): 5 (mortality of 90% or above (nearly complete death))
A: barnyardgrass, herbicidal effect (evaluation scale 0-5) (barnyardgrass [13]): 5 (mortality of 90% or above (nearly complete death))
C: ducksalad, herbicidal effect (evaluation scale 0-5) (ducksalad [14]): 5 (mortality of 90% or above (nearly complete death))
F: wild oat, herbicidal effect (wild oat [16]; [29]): 0 (mortality of less than 5% (almost ineffective))
E: giant foxtail, herbicidal effect (giant foxtail [17]; [29]): 3 (mortality of at least 40% and less than 70%)
M: posumbu knotweed, herbicidal effect (posumbu knotweed; [29]): 0 (mortality of less than 5% (almost ineffective))
A: barnyardgrass, herbicidal effect (barnyardgrass [19]; [29]): 5 (mortality of 90% or above (nearly complete death))
H: Italian ryegrass, herbicidal effect (Italian ryegrass [20]; [29]): 3 (mortality of at least 40% and less than 70%)
G: water foxtail, herbicidal effect (water foxtail [21]; [29]): 5 (mortality of 90% or above (nearly complete death))
J: common ragweed, herbicidal effect (common ragweed [22]; [29]): 4 (mortality of at least 70% and less than 90%)
D: large crabgrass, herbicidal effect (large crabgrass [23]; [29]): 5 (mortality of 90% or above (nearly complete death))
L: common lambsquater, herbicidal effect (common lambsquater [24]; [29]): 0 (mortality of less than 5% (almost ineffective))
O: beadstraw, herbicidal effect (beadstraw; [29]): 4 (mortality of at least 70% and less than 90%)
I: velvetleaf, herbicidal effect (velvetleaf [25]; [29]): 5 (mortality of 90% or above (nearly complete death))
a: transplanted rice, effect on crop (evaluation scale 0-5) (transplanted rice): 2 (mortality of at least 20% and less than 40%)
B: bulrush, herbicidal effect (evaluation scale 0-5) (bulrush [26]): 5 (mortality of 90% or above (nearly complete death))
A: barnyardgrass, herbicidal effect (evaluation scale 0-5) (barnyardgrass [27]): 5 (mortality of 90% or above (nearly complete death))
C: ducksalad, herbicidal effect (evaluation scale 0-5) (ducksalad [28]): 5 (mortality of 90% or above (nearly complete death))
